Laboratory results reported in patent US20250098679A1, “HERBICIDAL PYRIDONE DERIVATIVES” (SYNGENTA CROP PROTECTION AG, priority 2021, published 2025).

What was measured:
Type in all cases: in vivo
Conditions in all cases: evaluated after 13 days
[1] = test system: Amaranthus retoflexus (AMARE); experiment: Post-emergence Test, Amaranthus retoflexus (AMARE); parameters: key to percentage damage caused to the plant, AMARE (five-point scale): 5=81-100%, 4=61-80%, 3=41-60%, 2=21-40%, 1=0-20% damage
Procedure: (§1) Seeds of a variety of test species are sown in standard soil in pots (Setaria faberi (SETFA), Echinochloa crus-galli (ECHCG), Zea mays (ZEAMX), Ipomoea hederacea (IPOHE), Amaranthus palmeri (AMAPA), Amaranthus retoflexus (AMARE)). After 8 days cultivation under controlled conditions in a glasshouse (at 24° C./16° C., day/night; 14 hours light; 65% humidity), the plants are sprayed with an aqueous spray solution derived from the formulation of the technical active ingredient in acetone/water (50:50) solution containing 0.5% Tween 20 (polyoxyethelyene sorbitan monolaurate, CAS RN 9005-64-5). Compounds are applied at 1000 g/ha unless otherwise stated. The test plants are then grown in a glasshouse under controlled conditions in a glasshouse (at 24° C./16° C., day/night; 14 hours light; 65% humidity) and watered twice daily. After 13 days the test is evaluated for the percentage damage caused to the plant. The biological activities are shown in the following table on a five-point scale (5=81-100%; 4=61-80%; 3=41-60%; 2=21-40%; 1=0-20%; -=not tested).

[2] = test system: Amaranthus palmeri (AMAPA); experiment: Post-emergence Test, Amaranthus palmeri (AMAPA); parameters: key: 5=81-100%, 4=61-80%, 3=41-60%, 2=21-40%, 1=0-20% damage
Procedure: as §1

[3] = test system: Ipomoea hederacea (IPOHE); experiment: Post-emergence Test, Ipomoea hederacea (IPOHE); parameters: key to percentage damage caused to the plant, IPOHE (five-point scale): 5=81-100%, 4=61-80%, 3=41-60%, 2=21-40%, 1=0-20% damage
Procedure: as §1

Zea mays (ZEAMX) = experiment: Post-emergence Test, Zea mays (ZEAMX); parameters: key to percentage damage caused to the plant, ZEAMX (five-point scale): 5=81-100%, 4=61-80%, 3=41-60%, 2=21-40%, 1=0-20% damage
Procedure: as §1

[4] = test system: Echinochloa crus-galli (ECHCG); experiment: Post-emergence Test, Echinochloa crus-galli (ECHCG); parameters: key to percentage damage caused to the plant, ECHCG (five-point scale): 5=81-100%, 4=61-80%, 3=41-60%, 2=21-40%, 1=0-20% damage
Procedure: as §1

Setaria faberi (SETFA) = experiment: Post-emergence Test, Setaria faberi (SETFA); parameters: key to percentage damage caused to the plant, SETFA (five-point scale): 5=81-100%, 4=61-80%, 3=41-60%, 2=21-40%, 1=0-20% damage
Procedure: as §1

| Structure (SMILES) | percentage damage caused to the plant, AMARE (five-point scale) ([1]; 1000 g/ha) | percentage damage caused to the plant, AMAPA (five-point scale) ([2]; 1000 g/ha) | percentage damage caused to the plant, IPOHE (five-point scale) ([3]; 1000 g/ha) | percentage damage caused to the plant, ZEAMX (five-point scale) (Zea mays (ZEAMX); 1000 g/ha) | percentage damage caused to the plant, ECHCG (five-point scale) ([4]; 1000 g/ha) | percentage damage caused to the plant, SETFA (five-point scale) (Setaria faberi (SETFA); 1000 g/ha) | percentage damage caused to the plant, AMARE (five-point scale) ([1]; 250 g/Ha) | percentage damage caused to the plant, AMAPA (five-point scale) ([2]; 250 g/Ha) | percentage damage caused to the plant, IPOHE (five-point scale) ([3]; 250 g/Ha) | percentage damage caused to the plant, ZEAMX (five-point scale) (Zea mays (ZEAMX); 250 g/Ha) | percentage damage caused to the plant, ECHCG (five-point scale) ([4]; 250 g/Ha) | percentage damage caused to the plant, SETFA (five-point scale) (Setaria faberi (SETFA); 250 g/Ha) | Post-emergence Test AMARE, percentage damage caused to the plant (five-point scale) ([1]; 1000 g/ha) | Post-emergence Test AMAPA, percentage damage caused to the plant (five-point scale) ([2]; 1000 g/ha) | Post-emergence Test IPOHE, percentage damage caused to the plant (five-point scale) ([3]; 1000 g/ha) | Post-emergence Test ZEAMX, percentage damage caused to the plant (five-point scale) (Zea mays (ZEAMX); 1000 g/ha) | Post-emergence Test SETFA, percentage damage caused to the plant (five-point scale) (Setaria faberi (SETFA); 1000 g/ha) |
| --- | --- | --- | --- | --- | --- | --- | --- | --- | --- | --- | --- | --- | --- | --- | --- | --- | --- |
| CCn1c(Cn2cnc(C(F)(F)F)c2)cc(=O)c(C(=O)O)c1-c1ccc(Cl)c(Cl)c1 [Compound 10, 2-(3,4-dichlorophenyl)-1-ethyl-4-oxo-6-[[4-(trifluoromethyl)imidazol-1-yl]methyl]pyridine-3-carboxylic acid] | 0 | 0 | 1 (1=0-20%) | 1 (1=0-20%) | 0 | 0 |  |  |  |  |  |  |  |  |  |  |  |
| CCn1c(Cn2ccc(NC(C)=O)n2)cc(=O)c(C(=O)O)c1-c1ccc(Cl)c(Cl)c1 [Compound 154, 6-[(3-acetamidopyrazol-1-yl)methyl]-2-(3,4-dichlorophenyl)-1-ethyl-4-oxo-pyridine-3-carboxylic acid] | 0 | 0 | 0 | 1 (1=0-20%) | 0 | 0 | 0 | 0 | 0 | 1 (1=0-20%) | 0 | 0 |  |  |  |  |  |
| CCOC(=O)c1nccn1Cc1cc(=O)c(C(=O)O)c(-c2ccc(Cl)c(Cl)c2)n1CC [Compound 110, 2-(3,4-dichlorophenyl)-6-[(2-ethoxycarbonylimidazol-1-yl)methyl]-1-ethyl-4-oxo-pyridine-3-carboxylic acid] | 0 | 0 | 1 (1=0-20%) | 0 | 1 (1=0-20%) | 1 (1=0-20%) |  |  |  |  |  |  |  |  |  |  |  |
| CCn1c(Cn2ccc(Cl)n2)cc(=O)c(C(=O)O)c1-c1ccc(Cl)c(C#N)c1 [Compound 131, 2-(4-chloro-3-cyano-phenyl)-6-[(3-chloropyrazol-1-yl)methyl]-1-ethyl-4-oxo-pyridine-3-carboxamide acid] | 0 | 0 | 1 (1=0-20%) | 0 |  | 2 (2=21-40%) |  |  |  |  |  |  |  |  |  |  |  |
| CCn1c(Cn2nc(C#N)cc2C#N)cc(=O)c(C(=O)O)c1-c1ccc(Cl)c(Cl)c1 [Compound 132, 2-(3,4-dichlorophenyl)-6-[(3,5-dicyanopyrazol-1-yl)methyl]-1-ethyl-4-oxo-pyridine-3-carboxylic acid] | 0 |  | 0 | 1 (1=0-20%) | 1 (1=0-20%) | 1 (1=0-20%) |  |  |  |  |  |  |  |  |  |  |  |
| CCn1c(Cn2ccc(-c3cccc(Cl)c3)n2)cc(=O)c(C(=O)O)c1-c1ccc(Cl)c(Cl)c1 [Compound 202, 6-[[3-(3-chlorophenyl)pyrazol-1-yl]methyl]-2-(3,4-dichlorophenyl)-1-ethyl-4-oxo-pyridine-3-carboxylic acid] |  |  |  |  |  |  |  |  |  |  |  |  | 0 | 0 | 1 (1=0-20%) | 1 (1=0-20%) | 1 (1=0-20%) |
